Drawing on PubChem BioAssay (NCI), this text covers TGI and GI50 for 7 molecules.

What all share (test): growth of human tumour cells (NCI), 48 h
The test system of test [1] is KM12 colon.
Test [2] relates to BT-549 breast.
In test [3] the test system is OVCAR-3 ovarian.
In test [4] the test system is OVCAR-5 ovarian.
The test system of test [5] is TK-10 renal.
Test [6] has as its system SW-620 colon.
In test [7] the test system is CCRF-CEM leukemia.
Test [8] has as its system HCC-2998 colon.
Test [9] deals with HCT-116 colon.
Test [10] concerns A498 renal.

The structures appear in SMILES notation.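 Protocol summary: plate cells (96-well), add compound at 5 concentrations, incubate 48 h, interpolate endpoints linearly. Here, GI50 denotes the concentration required for 50% inhibition of growth. The concentration for full growth arrest is given as TGI.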 Some results are limits rather than exact numbers.

Consider `Nc1nc(-c2ccccc2)nc2c1[n+]([O-])c1ccccc1[n+]2[O-]`, for which the TGI in [1], in test [2], in test [3], in test [4], in [5] and in [6] was above 100 µM throughout. In addition, the TGI in test [7], in test [8], in test [9] and in [10] was above 100 µM in each case.
For the molecule `CCN(C(=O)c1cc(F)ccc1Oc1cncnc1N1CC2(CCN(CC3CCC(NS(=O)(=O)CC)CC3)CC2)C1)C(C)C` (stereo not given), the GI50 in [1], in [2], in [3], in [4], in test [5] and in test [6] was above 100 µM each time. The GI50 in test [7], in [8], in test [9] and in test [10] was above 100 µM each time. The TGI in test [1], in test [2], in [3], in [4], in [5] and in test [6] was above 100 µM throughout. The TGI in test [7], in [8], in test [9] and in [10] was above 100 µM each time.
As to `Cc1cc(Cl)ccc1NC(=O)c1cc2ccccc2cc1O`, the GI50 is 1.91 µM in [1]; 0.673 µM in [2]; 0.369 µM in test [3]; 4.2 µM in test [4]; 1.56 µM in test [5]; 1.59 µM in test [6]. Also, the GI50 in test [7] was 1.22 µM; in [8], 3.92 µM; in [9], 0.405 µM; in test [10], 0.22 µM. Moreover, the TGI in [1] is above 44 µM; in test [2], above 100 µM; in test [3], above 34.9 µM; in test [4], above 100 µM; in [5], above 100 µM; in test [6] it was above 100 µM. Besides, the TGI in test [7] is above 100 µM; in test [8], above 100 µM; in test [9] it was above 100 µM; in test [10], 1.4 µM.
On to `COc1cc(Nc2ccnc(NCCCNc3ccnc4cc(Cl)ccc34)n2)cc(OC)c1`, for which the GI50 in [1] was 2.92 µM; in test [2], 1.79 µM; in test [3], 1.95 µM; in [4] it was 2.01 µM; in [5], 1.81 µM; in [6], 1.28 µM. In addition, the GI50 is 1.19 µM in [7], 1.58 µM in test [8], 0.842 µM in test [9] and 1 µM in [10]. Further, the TGI in [1] was 9.46 µM; in test [2], 4.42 µM; in test [3] it was 4.32 µM; in test [4], 6 µM; in [5] it was 3.63 µM; in test [6], 2.78 µM. The TGI in test [7] turned out to be 3.88 µM; in [8] it was 3.36 µM; in test [9], 2.73 µM; in test [10], 2.81 µM.
In the case of `O=C(/C=C/c1cc([N+](=O)[O-])ccc1Cl)c1ccccc1`, the GI50 was 1.8 µM in test [1]; 14.5 µM in test [2]; 5.08 µM in test [3]; 23.5 µM in [4]; 38.2 µM in test [5]; 2.05 µM in [6]. In addition, the GI50 was 26.9 µM in test [7], 3.3 µM in test [8], 1.59 µM in test [9] and 12.8 µM in test [10]. Besides, the TGI in [1] is 3.59 µM; in test [2] it was 27.8 µM; in test [3] it was 16.1 µM; in test [4], 74.2 µM; in [5], above 100 µM; in test [6] it was 3.9 µM. Besides, the TGI was above 100 µM in test [7], 9.27 µM in test [8], 2.93 µM in [9] and 26.9 µM in [10].
As for `O=C(NCc1ccc(Cn2c(=O)sn(-c3ccccc3)c2=O)cc1)OCc1ccc2c(Br)cc(Br)c(O)c2n1`, the GI50 in [1] is 1.57 µM; in test [2], 0.614 µM; in test [3], 0.267 µM; in [4], 1.43 µM; in [5], 0.404 µM; in [6], 0.246 µM. For the same molecule, the GI50 in test [7] is 0.351 µM; in [8], 1.8 µM; in test [9], 0.141 µM; in test [10] it was 1.53 µM. For the same molecule, the TGI in test [1] is 3.47 µM; in test [2] it was 1.99 µM; in [3] it was 0.738 µM; in [4], 2.97 µM; in test [5] it was 1.39 µM; in test [6], 0.649 µM. The TGI is above 100 µM in test [7], 3.41 µM in test [8], 0.328 µM in test [9] and 2.9 µM in test [10].
Take `Oc1[nH]c2ccc(Cl)cc2c1/C=c1/ccc2c(c1)N=C(c1ccc(F)cc1)N=2`: the GI50 is 2.54 µM in [1]; 1.38 µM in test [2]; 1.92 µM in test [3]; 4.17 µM in [4]; 2.83 µM in test [5]; 1.89 µM in [6]. In addition, the GI50 in test [7] is 2.07 µM; in test [8] it was 4.68 µM; in test [9], 1.49 µM; in test [10], 3.36 µM. The TGI in [1] came out at 6.53 µM; in test [2], 3.11 µM; in test [3], 3.58 µM; in test [4], 14.7 µM; in [5] it was 4.88 µM; in test [6], 3.74 µM. For the same molecule, the TGI in [7] amounted to 4.93 µM; in test [8], 15.9 µM; in test [9], 2.81 µM; in test [10], 16.5 µM.
